Measurements: paper PMC11859423, “Fluorescent Probes to Image the KCa3.1 Channel in Tumor Cells” (Pharmaceutics, 2025)

Tests used:
[1] = logP by HPLC retention time correlation; assay type: physicochemical; conditions: standardized reversed phase HPLC system
Procedure: The logP values were recorded using HPLC analysis. Thus, the retention time of the test compound in a standardized reversed phase HPLC system is correlated with the retention times of compounds with known logP values.
In addition to the logD7.4 values, the logP values of the fluorescent probes were recorded by HPLC, i.e., after calibration of the method, the retention times were correlated with the logP values or the compounds [33]. […] Fluorescein-labeled ligands 21a and 21b are considerably more polar than the corresponding bodipy-labeled senicapoc derivatives.

[2] = design: method as in PMID 36315933; conditions: previously reported values; cited from earlier work
[3] = target: T1, KCa3.1 channel in A549-3R cells (Homo sapiens, UniProt O15554); design: method as in PMID 36315933; conditions: previously reported; cited from earlier work
T1 construct: the non-small cell lung cancer cell line A549-3R with a high expression of the KCa3.1 channel was employed; endogenous in cells; host or cells: A549-3R cells

[4] = UV-Vis absorption and time-resolved photoluminescence spectroscopy; assay type: physicochemical; conditions: measured in H2O, c = 10^−5 M, 298 K
Procedure: All solvents used were of spectrometric grade (Uvasol®). UV-visible absorption spectra were measured using a Shimadzu UV–VIS spectrophotometer (UV-3600i). Photoluminescence quantum yields were measured with a Hamamatsu Photonics absolute PL quantum yield measurement system (C9920-02) equipped with a L9799-01 CW Xe light source (150 W), a monochromator, a C7473 photonic multi-channel analyzer, an integrating sphere and employing U6039-05 software, version 3.6.0. (Hamamatsu Photonics, Ltd., Shizuoka, Japan). Steady-state excitation and emission spectra were recorded on a FluoTime 300 spectrometer from PicoQuant equipped with a 300 W ozone-free Xe lamp (200–1100 nm), a 10 W Xe-flash lamp (200–1100 nm, pulse width ca. 1 µs) with repetition rates of 1–300 Hz, a double-grating excitation monochromator (Czerny–Turner type, grating with 1200 lines/mm, blaze wavelength: 300 nm), diode lasers (pulse width < 20 ps) operated by a computer-controlled laser driver PDL-828 “Sepia II” (repetition rate up to 80 MHz, burst mode for slow and weak decays), two emission monochromators (Czerny–Turner, selectable between double-grating blazed at 500 nm with 2.7 nm/mm dispersion and 1200 lines/mm, or single-grating blazed at 1250 nm with 5.4 nm/mm dispersion and 600 lines/mm) with adjustable slit width between 25 μm and 7 mm. Glam–Thompson polarizers for excitation (after the Xe-lamps) and emission (after the sample) were used. Different sample holders (Peltier-cooled mounting unit ranging from −15 to 110 °C or an adjustable front-face sample holder), along with two detectors (namely a PMA Hybrid-07 from PicoQuant with transit time spread FWHM < 50 ps, 200–850 nm, or a H10330C-45-C3 NIR detector with transit time spread FWHM 0.4 ns, 950–1400 nm from Hamamatsu) were used. Steady-state spectra and photoluminescence lifetimes were recorded in TCSPC mode by a PicoHarp 300 (minimum base resolution 4 ps) or in MCS mode by a TimeHarp 260 (where up to several ms can be traced). Emission and excitation spectra were corrected for source intensity (lamp and grating) by standard correction curves. For samples with lifetimes in the ns order, an instrument response function calibration (IRF) was performed using a diluted Ludox® dispersion. Lifetime analysis was performed using the commercial EasyTau 2 software, version 2.3. (PicoQuant, Berlin, Germany). The quality of the fit was assessed by minimizing the reduced chi squared function (χ^2) and visual inspection of the weighted residuals and their autocorrelation.
Fluorescence microscopy was used for the analysis of KCa3.1 channel labeling of cells with fluorescent dyes. Therefore, the photophysical properties of fluorescently labeled senicapoc derivatives 15a, 21a, and 22 were determined. Since the fluorophores are separated from the rest of the molecule by a linker, the photophysical properties could be recorded using azide precursors 6a, 6b, and 7a as well.

[5] = target: T1, KCa3.1 channel in A549-3R cells; test: Staining of fixed A549-3R tumor cells (Protocol 1), fluorescence microscopy; assay type: cell-based; conditions: 10 µM in PBS, 10 min, 4 °C, Protocol 1
Procedure: For the fixation of the cells, the DMEM medium was removed from the glass bottom dish after incubation for 24 h, and the cells were washed with 1 mL of PBS. Subsequently, 1 mL of 4% paraformaldehyde in PBS solution was added to the glass bottom dish and the mixture was incubated for 30 min at room temperature. Thereafter, the cells were washed five times with 1 mL of PBS and used for the cell staining experiments.
After fixation of the cells (Section 2.10.2), 300 µL of the 10 µM staining solution was added to the glass bottom dish. The cells were incubated for 10 min at 4 °C in a dark chamber. After incubation, the cells were washed five times with 1 mL of PBS and used subsequently for fluorescence microscopy.
An Axiovert 200 inverted microscope (Carl Zeiss AG, Jena, Germany) with a ×100 oil immersion objective and a digital camera (SPOT RT SE from Diagnostic Instruments Inc., Livingston, UK) were used. The camera was controlled by MetaVue software (version 6.3r6, Visitron, Germany). Two different filter sets were employed, the FITC filter set (Carl Zeiss Filter Set 10 bandwidth excitation filter 450–490, color splitter 510, bandpass filter 515–565) and the TRITC filter set (Carl Zeiss Filter Set 15, bandpass excitation filter 546/12, dichroic mirror 580, emission filter Long Pass 590).
Using the free imaging software ImageJ (1.53f51, NIH, USA), squares with an edge length of 50 × 50 pixels, corresponding to an area of 9 µm^2, were randomly placed in a cell and signals with Full Width at Half Maximum (FWHM) of ≤5 pixels (~300 nm) were counted as a KCa3.1 channel. For the evaluation, 7 squares were analyzed.
For the staining experiments, the non-small cell lung cancer cell line A549-3R with a high expression of the KCa3.1 channel was employed. An optimized staining protocol (Protocol 1) described previously was followed to analyze the imaging properties of the fluorescent probes. In brief, the 10 µM solution of the senicapoc–dye conjugate in PBS was added to adherent A549-3R cells in a glass bottom dish and the set-up was incubated for 10 min at 4 °C in a dark chamber. After careful washing, the cells were analyzed with a fluorescence microscope.
The images were analyzed with respect to size and density of the fluorescent dots. For this purpose, a square with a size of 50 × 50 pixels was randomly placed on the cell images using ImageJ. The intensities of the signals within the square were analyzed to calculate the Full Width at Half Maximum (FWHM) for each selected dot, which represents a measure for the signal size. For the accurate representation of a single KCa3.1 channel, the FWHM should be in the range of five pixels. Signals with a FWHM of ≤5 pixels within the square were regarded as labeled KCa3.1 channels and the number of identified channels was used to determine the density of the ion channels on the cells (Figure S8, Supplementary Materials).

[6] = logD7.4 by micro shake flask method (n-octanol / MOPS buffer pH 7.4, LC-MS); assay type: physicochemical; conditions: read-out: logD7.4 ± SD (Micro Shake Flask)
Procedure: The logD7.4 values were recorded using the micro shake flask method. In this method, the test compound is distributed between n-octanol and MOPS buffer pH 7.4, and the amount of the compound in the buffer layer is determined by mass spectrometry.
The new fluorescent dyes were designed to increase the polarity and reduce the non-specific labeling of lipophilic membranes of cells. Moreover, a higher polarity should lead to increased water solubility and thus improved handling of the dyes. The logD7.4 value was recorded as a measure of the polarity/lipophilicity using our recently published micro-shake flask method. According to this method, the amount of compound in the aqueous 3-morpholinopropanesulfonic acid (MOPS) buffer pH 7.4 was determined by LC-MS [31, 32].

KCa3.1 channels = conditions: read-out: IC50 (KCa3.1 channel); cited from earlier work

For `CC1=CC(C)=[N+]2C1=C(c1ccc(OCCOCCn3cc(COc4ccc(C(C(N)=O)(c5ccccc5)c5ccc(F)cc5)cc4)nn3)cc1)c1c(C)cc(C)n1[B-]2(F)F` (stereo not drawn) [9a], the chromatographic logP [1] is given as 5.4, the “logD7.4 ± SD (Micro Shake Flask)” value [2] is given as 4.73 ± 0.03 and the staining properties [3] is given as “promising staining properties”.

For `NC(=O)C(c1ccccc1)(c1ccc(F)cc1)c1ccc(OCCOCCNC(=S)Nc2ccc3c(c2)C(=O)OC32c3ccc(O)cc3Oc3cc(O)ccc32)cc1` (stereo not drawn) [21a, 2-[4-(2-{2-[3-(3′,6′-Dihydroxy-3-oxo-3H-spiro[[2]benzofuran-1,9′-xanthen]-5-yl)thioureido]ethoxy}ethoxy)phenyl]-2-(4-fluorophenyl)-2-phenylacetamide], the “Absorption λmax” value [4] was 496 nm, the “Emission λmax” value [4] was 521 nm and the “Stokes Shift” value [4] was 25 nm. The “ΦF absolute quantum yield” value [4] was 0.32 ± 0.02, the τ photoluminescence lifetime [4] was 4.21 ± 0.02 ns and the “staining pattern of fixed A549-3R tumor cells” value [5] was “A weak green fluorescence of the membrane and an intense staining of the nucleus”. For the same molecule, the chromatographic logP ([1]; HPLC at pH 6.0) was 1.5 and the logD [6] was 1.69 ± 0.04.

In the case of `CO[B-]1(F)n2c(C)cc(C)c2C(c2ccc(OCCOCCn3cc(COc4ccc(C(C(N)=O)(c5ccccc5)c5ccc(F)cc5)cc4)nn3)cc2)=C2C(C)=CC(C)=[N+]21` (stereo not drawn) [10a], the chromatographic logP [1] is given as 4.4, the “logD7.4 ± SD (Micro Shake Flask)” value [2] is given as 4.60 ± 0.23 and the staining properties [3] is given as “promising staining properties”.

In the case of `NC(=O)C(c1ccccc1)(c1ccc(F)cc1)c1ccc(F)cc1` [senicapoc], the IC50 (KCa3.1 channels) is listed as 11 nM.
